Reference: ChEMBL document CHEMBL5154881, “Discovery of First-in-Class TAK1-MKK3 Protein-Protein Interaction (PPI) Inhibitor (R)-STU104 for the Treatment of Ulcerative Colitis through Modulating TNF-α Production” (J Med Chem, 2022)

What was measured:
[1] = AUC (0 to t) in 12 hr starved C57 mouse at 30 mg/kg, po measured for 0.083 to 24 hrs post-dose by LC-MS-MS analysis; format: ADME, organism-based; parameters: time upper 24 hrs, dose 30 mg/kg, time lower 0.083 hrs, route po; settings: in vivo
Mus musculus [2] = assay: Antiinflammatory activity against DSS-induced C57BL/6 mouse model of acute ulcerative colitis assessed as inhibition ratio of TNF-alpha protein expression at 10 mg/kg, IG via gavage measured after 7 days by ELISA relative to control; format: functional; parameters: scale not given: the % may be the effect or the level left; settings: time 7 day
Mus musculus [3] = assay: Antiinflammatory activity against DSS-induced C57BL/6 mouse model of acute ulcerative colitis assessed as inhibition ratio of IL-1beta mRNA expression in colon tissue at 1 mg/kg, IG via gavage measured after 7 days by RT-qPCR analysis relative to control; format: functional; parameters: scale not given: the % may be the effect or the level left; settings: time 7 day
Mus musculus [4] = assay: Antiinflammatory activity against IL-10-/- C57BL/6 mouse model of ulcerative colitis assessed as inhibition ratio of IL-23 protein expression at 1 mg/kg, IG via gavage and measured after 8 weeks by ELISA relative to control; format: functional; parameters: scale not given: the % may be the effect or the level left
Mus musculus [5] = assay: Antiinflammatory activity against DSS-induced C57BL/6 mouse model of acute ulcerative colitis assessed as inhibition ratio of TNF-alpha protein expression at 3 mg/kg, IG via gavage measured after 7 days by ELISA relative to control; format: functional; parameters: scale not given: the % may be the effect or the level left; settings: time 7 day
[6] = Half life in 12 hr starved C57 mouse at 30 mg/kg, po measured for 0.083 to 24 hrs post-dose by LC-MS-MS analysis; format: ADME, organism-based; settings: in vivo, time 0.083-24 hrs
Mus musculus [7] = assay: Antiinflammatory activity against IL-10-/- C57BL/6 mouse model of ulcerative colitis assessed as inhibition ratio of TNF-alpha protein expression at 10 mg/kg, IG via gavage and measured after 8 weeks by ELISA relative to control; format: functional; parameters: scale not given: the % may be the effect or the level left
[8] = biological target: T1, Dual specificity mitogen-activated protein kinase kinase 3 (Mus musculus) (UniProt O09110); assay: Binding affinity to MKK3 in mouse RAW264.7 cells assessed as increase in thermal stability at 47 degC incubated for 24 hrs by CETSA; format: cell-based; settings: dose 1-64 µM, DDE = dose-dependent effect
T1 sequence (whole entry): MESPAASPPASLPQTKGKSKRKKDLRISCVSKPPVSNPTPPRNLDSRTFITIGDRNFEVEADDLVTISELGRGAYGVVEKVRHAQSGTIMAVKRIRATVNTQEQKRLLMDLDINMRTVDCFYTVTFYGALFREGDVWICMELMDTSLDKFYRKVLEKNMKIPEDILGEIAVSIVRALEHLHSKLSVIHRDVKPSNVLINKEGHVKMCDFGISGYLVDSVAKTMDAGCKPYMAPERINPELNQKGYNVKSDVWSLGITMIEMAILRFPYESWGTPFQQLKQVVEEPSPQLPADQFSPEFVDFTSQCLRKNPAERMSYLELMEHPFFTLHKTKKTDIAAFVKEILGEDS

[9] = biological target: T2, Mitogen-activated protein kinase kinase kinase 7 (Homo sapiens) (UniProt O43318); assay: Inhibition of human TAK1 at 50 uM using casein as substrate incubated for 40 mins in presence of [gamma-33P]-ATP by scintillation counting method relative to control
T2 sequence (whole entry): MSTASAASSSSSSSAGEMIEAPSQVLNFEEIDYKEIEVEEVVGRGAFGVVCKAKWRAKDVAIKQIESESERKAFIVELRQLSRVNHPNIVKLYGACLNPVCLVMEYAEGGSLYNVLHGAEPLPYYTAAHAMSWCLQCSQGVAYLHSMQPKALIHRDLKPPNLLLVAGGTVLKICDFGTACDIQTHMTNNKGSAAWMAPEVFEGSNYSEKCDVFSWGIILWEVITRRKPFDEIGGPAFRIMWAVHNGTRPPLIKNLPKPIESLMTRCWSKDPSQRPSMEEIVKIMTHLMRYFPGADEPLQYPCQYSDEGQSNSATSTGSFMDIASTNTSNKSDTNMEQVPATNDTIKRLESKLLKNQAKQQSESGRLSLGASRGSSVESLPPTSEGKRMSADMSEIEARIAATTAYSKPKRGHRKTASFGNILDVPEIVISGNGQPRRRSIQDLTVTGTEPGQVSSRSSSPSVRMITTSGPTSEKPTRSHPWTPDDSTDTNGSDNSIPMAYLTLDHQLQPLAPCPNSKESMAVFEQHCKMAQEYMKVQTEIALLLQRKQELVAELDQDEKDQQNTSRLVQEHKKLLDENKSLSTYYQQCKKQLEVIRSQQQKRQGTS

Mus musculus [10] = assay: Antiinflammatory activity against DSS-induced C57BL/6 mouse model of acute ulcerative colitis assessed as inhibition ratio of IL-6 protein expression at 3 mg/kg, IG via gavage measured after 7 days by ELISA relative to control; format: functional; parameters: scale not given: the % may be the effect or the level left; settings: time 7 day
Mus musculus [11] = assay: Anti-ulcerative colitis activity in DSS-induced C57BL/6 mouse ulcerative colitis model assessed as colon length recovery ratio at 10 mg/kg, IG via gavage measured after 7 days relative to control; format: functional; settings: time 7 day
Mus musculus [12] = assay: Antiinflammatory activity against IL-10-/- C57BL/6 mouse model of ulcerative colitis assessed as inhibition ratio of IL-6 mRNA expression in colon tissue at 10 mg/kg, IG via gavage and measured after 8 weeks by RT-qPCR analysis relative to control; format: functional; parameters: scale not given: the % may be the effect or the level left
[13] = Toxicity in C57 mouse assessed as heart damage at 50 to 500 mg/kg, po administered daily for 14 days; format: organism-based; settings: in vivo, 336 h, dose 50-500 mg/kg, time 14 day
[14] = biological target: T1, Dual specificity mitogen-activated protein kinase kinase 3 (Mus musculus); assay: Binding affinity to MKK3 in mouse RAW264.7 cells assessed as increase in thermal stability by measuring change in melting temperature at 6.25 uM incubated for 24 hrs by CETSA; format: cell-based
[15] = Toxicity in C57 mouse assessed as body weight loss at 50 to 500 mg/kg, po administered daily for 14 days; format: organism-based; settings: in vivo, 336 h, dose 50-500 mg/kg, time 14 day
RAW264.7 = assay: Inhibition of MKK3-p38-elF4E signaling pathway in mouse RAW264.7 cells assessed as reduction in LPS-induced elF4E phosphorylation treated for 1.5 hrs followed by LPS treatment for 1 hr by Western blot analysis; format: cell-based; settings: dose 3.125-12.5 µmol/L, time 2.5 hrs, DDE = dose-dependent effect
Mus musculus [16] = assay: Antiinflammatory activity against IL-10-/- C57BL/6 mouse model of ulcerative colitis assessed as inhibition ratio of IL-6 protein expression at 3 mg/kg, IG via gavage and measured after 8 weeks by ELISA relative to control; format: functional; parameters: scale not given: the % may be the effect or the level left
Mus musculus [17] = assay: Antiinflammatory activity against DSS-induced C57BL/6 mouse model of acute ulcerative colitis assessed as reduction in serum IL-23 levels administered intragastrically via gavage measured after 7 days by ELISA; format: functional, organism-based; settings: dose 1-10 mg/kg, route ig, time 7.0 day, DDE = dose-dependent effect
Mus musculus [18] = assay: Antiinflammatory activity against DSS-induced C57BL/6 mouse model of acute ulcerative colitis assessed as inhibition ratio of IL-6 mRNA expression in colon tissue at 3 mg/kg, IG via gavage measured after 7 days by RT-qPCR analysis relative to control; format: functional; parameters: scale not given: the % may be the effect or the level left; settings: time 7 day
Mus musculus [19] = assay: Antiinflammatory activity against DSS-induced C57BL/6 mouse model of acute ulcerative colitis assessed as reduction in serum IL-6 levels administered intragastrically via gavage measured after 7 days by ELISA; format: functional, organism-based; settings: dose 1-10 mg/kg, route ig, time 7.0 day, DDE = dose-dependent effect

COc1ccc([C@H]2CC(=O)c3cc(OC)cc(OC)c32)cc1
AUC(0-t) [1]: 9900 ng·h/mL | Activity (Mus musculus [2]): 58.1% | Activity (Mus musculus [3]): 70.1% | Activity (Mus musculus [4]): 39.6% | Activity (Mus musculus [5]): 55.9% | half-life [6]: 8.67 h | Activity (Mus musculus [7]): 61.9% | Activity [8]: Dde | inhibition [9]: < 10% | Activity (Mus musculus [10]): 53.5% | Activity (Mus musculus [11]): 57.6% | Activity (Mus musculus [12]): 48.6% | Activity [13]: Non-Toxic | ΔTm [14]: 2 °C | Activity [15]: Non-Toxic | inhibition (RAW264.7): Dde | Activity (Mus musculus [16]): 44.5% | Activity (Mus musculus [17]): Dde | Activity (Mus musculus [18]): 68% | Activity (Mus musculus [19]): Dde
